# Patent US11673892B2, “Bicyclic compounds for use as RIP1 kinase inhibitors” (Genentech, Inc., priority 2017, dated 2023)
# Biological target: T1, human RIP1 kinase domain (2-375) (Homo sapiens, UniProt Q13546)
# T1 construct: Purified human RIP1 kinase domain (2-375) (50 nM); made in house; host or cells: baculovirus-infected insect cells
# T1 sequence (Q13546 2-375): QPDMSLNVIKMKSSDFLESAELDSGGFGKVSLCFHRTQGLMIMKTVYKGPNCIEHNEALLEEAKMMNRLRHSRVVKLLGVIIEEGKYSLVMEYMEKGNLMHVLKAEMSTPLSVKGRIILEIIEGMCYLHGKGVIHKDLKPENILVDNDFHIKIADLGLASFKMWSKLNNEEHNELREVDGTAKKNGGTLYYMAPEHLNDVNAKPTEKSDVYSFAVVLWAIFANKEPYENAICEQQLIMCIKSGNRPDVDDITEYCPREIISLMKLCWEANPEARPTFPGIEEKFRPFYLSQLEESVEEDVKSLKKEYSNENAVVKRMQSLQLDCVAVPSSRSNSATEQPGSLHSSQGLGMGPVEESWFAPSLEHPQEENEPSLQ
# Assay: RIP1 kinase inhibition biochemical assay (Transcreener ADP, fluorescence polarization)
# Conditions: Ki app (Morrison tight-binding fit); 50 nM enzyme, 50 uM ATP, 2 hours incubation
# Protocol: RIP1 Kinase Inhibition Assays (Biochemical Assay)
# The compounds of the present invention were tested for their capacity to inhibit RIP1K activity as described below.
# The ability of the receptor interacting protein kinase (RIPK1) to catalyze the hydrolysis of adenosine-5′-triphosphate (ATP) is monitored using the Transcreener ADP (adenosine-5′-diphosphate) assay (BellBrook Labs). Purified human RIP1 kinase domain (2-375) (50 nM) derived from a baculovirus-infected insect cell expression system is incubated with test compounds for 2 hours in 50 mM Hepes buffer (pH 7.5) containing 30 mM MgCl2, 1 mM dithiothreitol, 50 uM ATP, 0.002% Brij-35, and 0.5% dimethyl sulfoxide (DMSO). Reactions are quenched by the addition of 1× Bell Brooks Stop buffer B (20 mM Hepes (ph7.5), 40 mM ethylenediaminetetraacetic acid and 0.02% Brij-35) containing an additional 12 mM EDTA and 55 ug/mL ADP2 antibody and 4 nM ADP-AlexaFluor® 633 tracer. The tracer bound to the antibody is displaced by the ADP generated during the RIP1K reaction, which causes a decrease in fluorescence polarization that is measured by laser excitation at 633 nm with a FP microplate reader M1000. Fractional activity was plotted against test article concentration. Using Genedata Screener software (Genedata; Basel, Switzerland), the data were fit to the tight-binding apparent inhibition constant (Ki^app) Morrison equation [Williams, J. W. and Morrison, J. F. (1979) The kinetics of reversible tight-binding inhibition. Methods Enzymol 63: 437-67]. The following equation was used to calculate fractional activity and Ki^app:
# [formula] where [E]T and [I]T are the total concentrations of active enzyme and test article, respectively.
# Exemplary compounds of the present invention are provided in Table 1 along with their physiochemical characterization and in vitro RIP1 kinase inhibitory activity data. “Method” in the first column of each table refers to the synthetic method(s) used to prepare each compound as shown in the Examples above. In certain examples, chiral column retention times (min) are provided for certain stereoisomers. Unless otherwise specified, the stereochemistry shown in each structure represents relative configuration of a single stereoisomer, and absolute configuration (i.e., “R” and/or “S”) is arbitrarily assigned. In some embodiments, where the Method is described to include the separation of stereoisomers, a single stereoisomer of a compound of Table 1 is provided.
row,Ki,Structure (SMILES)
1,0.13 µM,"N#CC1CC(=Cc2nc3n(n2)[C@H](c2ccccc2)C[C@@H]3F)C1 (mixture of isomers) [Example 55, 3-[[rac-(5S,7S)-7-fluoro-5-phenyl-6,7-dihydro-5H-pyrrolo[1,2-b][1,2,4]triazol-2-yl]methylene]cyclobutanecarbonitrile]"
2,0.005 µM,"Cc1c(C#N)cnn1-c1nc2n(n1)[C@H](c1ccccc1)C[C@@H]2F (single isomer, unassigned) [Example 93]"
3,0.0045 µM,"Fc1ccccc1[C@@H]1C[C@H](F)c2nc(CC3CC3(F)F)nn21 (stereo partly drawn) [Example 112, (5S,7S)-2-[(2,2-difluorocyclopropyl)methyl]-7-fluoro-5-(2-fluorophenyl)-6,7-dihydro-5H-pyrrolo[1,2-b][1,2,4]triazole]"
4,0.35 µM,"CC1([C@@H](O)c2nc3n(n2)[C@H](c2ccccc2)C[C@@H]3F)CC1 (single isomer, unassigned) [Example 105]"
5,0.16 µM,"F[C@H]1C[C@@H](c2ccccc2)n2nc(-n3cccn3)nc21 (single isomer, unassigned) [Example 31]"
6,0.1 µM,"CCOC(=O)[C@@H]1C[C@H]1c1nc2n(n1)[C@H](c1ccccc1)C[C@@H]2F (mixture of isomers) [Example 21, ethyl rac-(1R,2R)-2-[(5S,7S)-7-fluoro-5-phenyl-6,7-dihydro-5H-pyrrolo[1,2-b][1,2,4]triazol-2-yl]cyclopropanecarboxylate]"
7,0.89 µM,"F[C@H]1C[C@@H](c2ccccc2)n2nc(-n3ccnc3)nc21 (single isomer, unassigned) [Example 66]"
8,0.052 µM,"O=Cc1cnn(-c2nc3n(n2)[C@H](c2ccccc2)C[C@@H]3F)c1 [Example 40, 1-[(5S,7S)-7-fluoro-5-phenyl-6,7-dihydro-5H-pyrrolo[1,2-b][1,2,4]triazol-2-yl]pyrazole-4-carbaldehyde]"
9,0.0049 µM,"[2H][C@@](F)(c1nc2n(n1)[C@H](c1ccccc1)C[C@@H]2F)C1CC1 (single isomer, unassigned) [Example 111]"
10,0.028 µM,"CCCc1nc2n(n1)[C@H](c1ccccc1)C[C@@H]2F (single isomer, unassigned) [Example 14]"
11,0.0045 µM,"F[C@H]1C[C@@H](c2ccccc2)n2nc(-n3cc(Cl)cn3)nc21 [Example 60, (5S,7S)-2-(4-chloropyrazol-1-yl)-7-fluoro-phenyl-6,7-dihydro-5H-pyrrolo[1,2-b][1,2,4]triazole]"
12,0.19 µM,"F[C@H]1C[C@@H](c2ccccc2)n2nc(-n3cncn3)nc21 (single isomer, unassigned) [Example 68]"
13,0.25 µM,"Cc1nn(-c2nc3n(n2)[C@H](c2ccccc2)C[C@@H]3F)cc1C#N (single isomer, unassigned) [Example 92]"
14,0.89 µM,"Cc1nccn1-c1nc2n(n1)[C@H](c1ccccc1)C[C@@H]2F (single isomer, unassigned) [Example 67]"
15,0.017 µM,"Cc1cnn(-c2nc3n(n2)[C@H](c2ccccc2)C[C@@H]3F)c1 (single isomer, unassigned) [Example 25]"
16,0.063 µM,"C[C@@H]1C[C@H]1c1nc2n(n1)[C@H](c1ccccc1)C[C@@H]2F (single isomer, unassigned) [Example 96]"
17,0.0092 µM,"F[C@H]1C[C@@H](c2ccccc2)n2nc(-n3nnc4cc(Cl)ccc43)nc21 (racemic) [Example 82, 5-chloro-1-[rac-(5S,7S)-7-fluoro-5-phenyl-6,7-dihydro-5H-pyrrolo[1,2-b][1,2,4]triazol-2-yl]benzotriazole]"
18,0.0073 µM,"[2H]C([2H])(c1nc2n(n1)[C@H](c1ccccc1)C[C@@H]2F)C1CC1 (single isomer, unassigned) [Example 116]"
19,0.84 µM,"F[C@H](c1nc2n(n1)[C@H](c1ccccc1)C[C@@H]2F)C12CC(C1)C2 (single isomer, unassigned) [Example 46]"
20,0.009 µM,"Fc1cnn(-c2nc3n(n2)[C@H](c2ccccc2)C[C@@H]3F)c1 (single isomer, unassigned) [Example 58]"
21,0.406 µM,CCC(O)c1nc2n(n1)[C@H](c1ccccc1)C[C@@H]2F (some centres unmarked) [Example 1]

row,Ki,Structure (SMILES)
1,0.82 µM,"Cn1ccn(-c2nc3n(n2)[C@H](c2ccccc2)C[C@@H]3F)c1=O (single isomer, unassigned) [Example 71]"
2,0.014 µM,"CC[C@H](F)c1nc2n(n1)[C@H](c1ccccc1)C[C@@H]2F (racemic) [Example 8, rac-(5S,7S)-7-fluoro-5-phenyl-2-[rac-(1S)-1-fluoropropyl]-6,7-dihydro-5H-pyrrolo[1,2-b][1,2,4]triazole]"
3,0.61 µM,"F[C@H]1C[C@@H](c2ccccc2)n2nc(-n3ccc(C(F)(F)F)n3)nc21 (single isomer, unassigned) [Example 64]"
4,0.036 µM,"F[C@H]1C[C@@H](c2ccccc2)n2nc(-n3nnc4ccncc43)nc21 (single isomer, unassigned) [Example 83]"
5,0.45 µM,"F[C@H]1C[C@@H](c2ccccc2)n2nc(C#CC3CC3)nc21 [Example 43, (5S,7S)-2-(2-cyclopropylethynyl)-7-fluoro-5-phenyl-6,7-dihydro-5H-pyrrolo[1,2-b][1,2,4]triazole]"
6,0.022 µM,"FC(F)CCc1nc2n(n1)[C@H](c1ccccc1)C[C@@H]2F (single isomer, unassigned) [Example 29]"
7,0.004 µM,"CC[C@@H](F)c1nc2n(n1)[C@H](c1ccccc1)C[C@@H]2F (racemic) [Example 7, rac-(5S,7S)-7-fluoro-5-phenyl-2-[rac-(1R)-1-fluoropropyl]-6,7-dihydro-5H-pyrrolo[1,2-b][1,2,4]triazole]"
8,0.2 µM,"C=C(CC)c1nc2n(n1)[C@H](c1ccccc1)C[C@@H]2F (single isomer, unassigned) [Example 97]"
9,0.018 µM,"CC[C@@](C)(F)c1nc2n(n1)[C@H](c1ccccc1)C[C@@H]2F (single isomer, unassigned) [Example 32]"
10,0.009 µM,"[2H]C(c1nc2n(n1)[C@H](c1ccccc1)C[C@@H]2F)C1CC1 (stereo partly drawn) [Example 101, (5S,7S)-2-[cyclopropyl(deuterio)methyl]-7-fluoro-5-phenyl-6,7-dihydro-5H-pyrrolo[1,2-b][1,2,4]triazole]"
11,0.1 µM,"O[C@@H](c1cc2n(n1)[C@@H](c1ccccc1)C[C@H]2F)C1CC1 (single isomer, unassigned) [Example 114]"
12,0.12 µM,"OC(c1nc2n(n1)[C@H](c1ccccc1)C[C@@H]2F)[C@@H]1C[C@H]1F (stereo partly drawn) [Example 108, [(1S,2R)-2-fluorocyclopropyl]-[(5S,7S)-7-fluoro-5-phenyl-6,7-dihydro-5H-pyrrolo[1,2-b][1,2,4]triazol-2-yl]methanol]"
13,0.91 µM,"N#CC(F)c1nc2n(n1)[C@H](c1ccccc1)C[C@@H]2F (stereo partly drawn) [Example 48, 2-fluoro-2-[(5S,7S)-7-fluoro-5-phenyl-6,7-dihydro-5H-pyrrolo[1,2-b][1,2,4]triazol-2-yl]acetonitrile]"
14,0.25 µM,"N#CC1CN(c2nc3n(n2)[C@H](c2ccccc2)C[C@@H]3F)C1 (single isomer, unassigned) [Example 100]"
15,0.012 µM,"F[C@H](c1nc2n(n1)[C@H](c1ccccc1)C[C@@H]2F)C1CC1 (single isomer, unassigned) [Example 109]"
16,0.095 µM,"N#CC1(Cc2nc3n(n2)[C@H](c2ccccc2)C[C@@H]3F)CC1 (single isomer, unassigned) [Example 47]"
17,0.73 µM,"N#CCc1nc2n(n1)[C@H](c1ccccc1)C[C@@H]2F (racemic) [Example 102, 2-[rac-(5S,7S)-7-fluoro-5-phenyl-6,7-dihydro-5H-pyrrolo[1,2-b][1,2,4]triazol-2-yl]acetonitrile]"
18,0.26 µM,"F[C@H]1C[C@@H](c2ccccc2)n2nc(-n3cc(-c4ccncn4)cn3)nc21 (single isomer, unassigned) [Example 41]"
19,0.003 µM,"F[C@H]1C[C@@H](c2ccccc2)n2nc(C(F)(F)C3CC3)nc21 (single isomer, unassigned) [Example 13]"
20,0.89 µM,"CC#Cc1nc2n(n1)[C@H](c1ccccc1)C[C@@H]2F [Example 44, (5S,7S)-7-fluoro-5-phenyl-2-prop-1-ynyl-6,7-dihydro-5H-pyrrolo[1,2-b][1,2,4]triazole]"
